Measurements: paper PMC8388125, “Kinetic and Structural Characterization of the Self-Labeling Protein Tags HaloTag7, SNAP-tag, and CLIP-tag” (Biochemistry, 2021)

Legend:
[1] = molecular target: T1, HaloTag7 (HT7) (Rhodococcus sp., UniProt P59336, A155T/A167V/A224E/C128F/C176G/D78G/E160K/E257K/G292T/H272N/K175M/K195N/L47V/L88M/N227D/P291S/S2A/S58T/T264A/V172T/Y273L/Y87F); assay: HT7 competitive labeling kinetics against CA-Alexa488; type: biochemical; conditions: HT7, nonfluorescent substrates, competition with CA-Alexa488, 37 °C
T1 construct: made in house; host or cells: E. coli BL21(DE3)-pLysS
T1 sequence (P59336 other isoform, or with tags, fused parts or gaps with the stated changes): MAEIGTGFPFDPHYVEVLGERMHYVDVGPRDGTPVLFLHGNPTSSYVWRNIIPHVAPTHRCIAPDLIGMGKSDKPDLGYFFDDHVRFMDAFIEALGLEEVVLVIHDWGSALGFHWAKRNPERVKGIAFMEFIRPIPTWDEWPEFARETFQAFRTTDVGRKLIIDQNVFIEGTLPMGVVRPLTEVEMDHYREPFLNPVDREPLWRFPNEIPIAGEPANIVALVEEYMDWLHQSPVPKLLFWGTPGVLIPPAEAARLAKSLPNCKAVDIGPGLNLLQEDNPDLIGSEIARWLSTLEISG
Method: Competitive kinetics were measured by recording FP over time using a microplate reader (Spark20M, Tecan). The final concentrations of CA-Alexa488 (50 nM) and HT7 protein (200 nM) remained constant with varying concentrations of nonfluorescent substrates (0–1 μM) in activity buffer supplemented with 0.5 g/L BSA. Assays were performed in black nonbinding flat bottom 96-well plates with a final reaction volume of 200 μL. Labeling reactions were started by adding the HT7 protein to wells containing CA-Alexa488 and nonfluorescent substrates using an electronic 96-channel pipettor (Integra Bioscience Corp., Hudson, NH). The FP of free CA-Alexa488 was measured to obtain a baseline.
(§1) Data were fitted to a simplified kinetic competition model (eqs 19 and 20) described by differential eqs 21–25 using DynaFit. The dead time of the measurements and baseline FP value were put in as fixed parameters. Standard deviations (normal distribution verified) and confidence intervals of fitted parameters were estimated with the Monte Carlo method with standard settings (N = 1000, 5% worst fits discarded). [drawing 19] 19 [drawing 20] 20 where P is the SLP protein, S is the fluorescent SLP substrate, I is the nonfluorescent SLP substrate (inhibitor), PS is the protein–fluorescent substrate conjugate, and PI is the protein–nonfluorescent substrate conjugate. [drawing 21] 21 [drawing 22] 22 [drawing 23] 23 [drawing 24] 24 [drawing 25] 25

[2] = molecular target: T2, SNAP-tag (SNAP) (Homo sapiens, UniProt P16455, A127T/A154D/C150Q/C62A/G131K/G132T/G153L/K125A/K32I/L33F/M134L/N157G/Q115S/Q116H/R128A/R135S/S151G/S152D/S159E); assay: SNAP competitive labeling kinetics against BG-Alexa488; type: biochemical; conditions: nonfluorescent substrates, competition with BG-Alexa488
T2 construct: made in house; host or cells: E. coli BL21(DE3)-pLysS
T2 sequence (P16455 1-182 K32I/L33F/C62A/Q115S/Q116H/K125A/A127T/R128A/G131K/G132T/M134L/R135S/C150Q/S151G/S152D/G153L/A154D/N157G/S159E limits assumed): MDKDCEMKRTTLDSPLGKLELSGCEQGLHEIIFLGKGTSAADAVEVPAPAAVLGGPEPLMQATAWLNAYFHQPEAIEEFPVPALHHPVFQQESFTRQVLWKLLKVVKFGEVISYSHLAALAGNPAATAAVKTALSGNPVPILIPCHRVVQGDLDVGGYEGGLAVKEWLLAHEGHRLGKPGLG
Method: Competitive kinetics were measured by recording FP over time using a microplate reader in a manner analogous to that for HT7 competition kinetics described above using 100 nM BG-Alexa488 as the fluorescent substrate in SNAP-FP buffer.
as §1

[3] = molecular target: T3, HT7^D106A (Rhodococcus sp., UniProt P59336, A155T/A167V/A224E/C128F/C176G/D106A/D78G/E160K/E257K/G292T/H272N/K175M/K195N/L47V/L88M/N227D/P291S/S2A/S58T/T264A/V172T/Y273L/Y87F); assay: Affinity of HT7^D106A for CA substrates by fluorescence polarization; type: binding
T3 construct: made in house; host or cells: E. coli BL21(DE3)-pLysS
T3 sequence (P59336 other isoform, or with tags, fused parts or gaps with the stated changes): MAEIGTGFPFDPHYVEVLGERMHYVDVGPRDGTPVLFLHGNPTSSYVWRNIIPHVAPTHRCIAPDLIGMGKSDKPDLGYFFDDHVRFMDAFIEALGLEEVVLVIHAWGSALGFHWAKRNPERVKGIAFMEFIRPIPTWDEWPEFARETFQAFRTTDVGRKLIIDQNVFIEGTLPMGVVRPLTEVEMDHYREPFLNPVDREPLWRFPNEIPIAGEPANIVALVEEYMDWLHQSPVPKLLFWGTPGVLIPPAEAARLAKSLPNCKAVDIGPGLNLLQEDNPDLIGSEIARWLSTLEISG
Method: Binding affinities of HT7^D106A or HOB^D106A for chloroalkane (CA) substrates were determined by fluorescence polarization (FP, eq 1) measurements using a microplate reader (Spark20M, Tecan Group AG, Männedorf, Switzerland). The fluorescent substrates (10 nM) were titrated against different protein concentrations (0–250 μM) in activity buffer supplemented with 0.5 g/L bovine serum albumin (BSA). Assays were performed in black low-volume nonbinding 384-well plates (Corning Inc., Corning, NY) with a final volume of 20 μL. Obtained FP values were averaged and fitted to a single-site binding model (eq 2) to estimate Kd values for each fluorescent substrate. The FP value of each dye fully reacted with the native HT7 was used to improve fitting of the upper plateau of the curves by adding an extra data point at a protein concentration of 0.1 M. [drawing 1] 1 where FP is the fluorescence polarization, I∥ is the fluorescence intensity parallel to the excitation light polarization, I⊥ is the fluorescence intensity perpendicular to the excitation light polarization, and G is the grating factor (G = I∥/I⊥). [drawing 2] 2 where FPmin is the fluorescence polarization of the free fluorophore (lower plateau), FPmax is the maximal fluorescence polarization of fully bound fluorophore (upper plateau), Kd is the dissociation constant, and [protein] is the protein concentration.
Free binding energies were calculated from Kd values according to eq 4: [drawing 4] 4 where ΔG is the free binding energy, R is the universal gas constant, T is the temperature, and Kd is the dissociation constant.

[4] = molecular target: T2, SNAP-tag (SNAP); assay: SNAP labeling kinetics via microplate reader (FP over time); type: biochemical; conditions: SNAP, plate reader
Method: Labeling kinetics of SNAP and CLIP substrates were measured by recording FP over time using a microplate reader in a manner analogous to that of HT7 labeling kinetics described above with the following changes. The fluorescent substrate concentration was fixed to 20 nM, and protein concentrations were varied from 15 to 900 nM. Measurements were performed in SNAP-FP buffer.
Kinetic data from microplate reader assays were fitted to a simplified kinetic model (eq 13) described by differential eqs 14–16 using DynaFit. The dead time of the measurements and baseline FP value were put in as fixed parameters. Standard deviations (normal distribution verified) and confidence intervals of fitted parameters were estimated with the Monte Carlo method with standard settings (N = 1000, 5% worst fits discarded). In the case of BG, CP, and BC kinetics, the substrate concentration was fitted by DynaFit to rule out quantification errors of the BG, CP, or BC fluorophores. Accurate fitting of the concentration was ensured by including conditions under which protein is limiting and no maximum FP value was reached.

[5] = molecular target: T1, HaloTag7 (HT7); assay: HT7 labeling kinetics via stopped flow (fluorescence anisotropy); type: biochemical; conditions: for k2 (± S.D.): HT7, stopped flow, model 2
Method: Labeling kinetics of HT7 with CA-TMR, CA-JF549, CA-CPY, CA-LIVE580, and CA-JF669 and labeling kinetics of HOB with CA-TMR were measured by recording fluorescence anisotropy changes over time using a BioLogic SFM-400 stopped-flow instrument (BioLogic Science Instruments, Claix, France) in a single-mixing configuration at 37 °C. HT7 protein and substrates in activity buffer were mixed in a 1:1 stoichiometry to reach a recordable speed for these fast reactions and to increase the information content of the traces. Concentrations were varied from 0.125 to 1 μM. The anisotropy of the free substrate was measured to obtain a baseline.
Kinetic stopped-flow data were preprocessed using a custom R script.[36],[37] Recorded pretrigger time points were removed, and time points were adjusted to start at time zero. Values from replicates were averaged. The anisotropy of the free dye was calculated by averaging anisotropy values of the baseline measurements. Preprocessed data were fitted to a kinetic model (eqs 5 and 6) described by differential eqs 7–10 using the DynaFit software.[38] The anisotropy of the free dye and the mixing delay of the stopped-flow machine were set as fixed offset and delay parameters in DynaFit. It was assumed that the protein substrate complex and the reacted product are contributing equally to the anisotropy signal. […] Standard deviations (normal distribution verified) and confidence intervals of fitted parameters were estimated with the Monte Carlo method[39] with standard settings (N = 1000, 5% worst fits discarded). In the case of SNAP kinetics with BG-TMR, the substrate concentration was fitted by DynaFit to rule out quantification errors of the BG-quenched fluorophore. Accurate fitting of the concentration was ensured by including conditions in which protein is limiting and no maximum FP value was reached.

Row | kapp (value ± standard deviation) [2] | SMILES | other results
1 | (4.78 ± 0.09) × 10^4 M^–1 s^–1 | [N-]=[N+]=Nc1ccc(C(=O)NCc2ccc(COc3nc(N)nc4[nH]cnc34)cc2)cc1 [BG-PhN3] | 
2 | (3.84 ± 0.07) × 10^4 M^–1 s^–1 | C=Cc1ccc(C(=O)NCc2ccc(COc3nc(N)nc4[nH]cnc34)cc2)cc1 [BG-Vbn] | 
3 | (3.94 ± 0.08) × 10^4 M^–1 s^–1 | Cc1nnc(-c2ccc(CC(=O)NCc3ccc(COc4nc(N)nc5[nH]cnc45)cc3)cc2)nn1 [BG-Tz] | 
4 | (2.91 ± 0.40) × 10^3 M^–1 s^–1 | [N-]=[N+]=Nc1ccc(C(=O)NCc2ccc(COc3cc(Cl)nc(N)n3)cc2)cc1 [CP-PhN3] | 
5 | (1.48 ± 0.05) × 10^4 M^–1 s^–1 | CC(=O)NCc1ccc(COc2nc(N)nc3[nH]cnc23)cc1 [BG-Ac] | 
6 | (3.70 ± 0.09) × 10^4 M^–1 s^–1 | [N-]=[N+]=NCC(=O)NCc1ccc(COc2nc(N)nc3[nH]cnc23)cc1 [BG-N3] | 
7 | (1.77 ± 0.04) × 10^4 M^–1 s^–1 | Nc1nc(Cl)cc(OCc2ccc(CNC(=O)C3CC4C=CC3C4)cc2)n1 (centres unmarked) [CP-Nor1] | 
8 | (6.36 ± 0.41) × 10^3 M^–1 s^–1 | [N-]=[N+]=NCC(=O)NCc1ccc(COc2cc(Cl)nc(N)n2)cc1 [CP-N3] | 
9 | (4.22 ± 0.61) × 10^3 M^–1 s^–1 | Nc1nc(Cl)cc(OCc2ccc(CNC(=O)OC3C#CCCCCC3)cc2)n1 (centres unmarked) [CP-SCO] | 
10 | (3.34 ± 0.31) × 10^3 M^–1 s^–1 | Nc1nc(Cl)cc(OCc2ccc(CNC(=O)OC[C@@H]3[C@@H]4CCC#CCC[C@@H]43)cc2)n1 [CP-BCN] | 
11 | (5.50 ± 0.45) × 10^3 M^–1 s^–1 | C=Cc1ccc(C(=O)NCc2ccc(COc3cc(Cl)nc(N)n3)cc2)cc1 [CP-Vbn] | 

The next lines start with the molecule.

Row | SMILES | kapp (value ± standard deviation) [2] | other results
12 | O=C(NCCOCCOCCCCCCCl)OC1C#CCCCCC1 (centres unmarked) [CA-SCO] |  | kapp (value ± standard deviation) [1]: (2.52 ± 0.05) × 10^5 M^–1 s^–1
13 | O=C(NCCOCCOCCCCCCCl)C1CC2C=CC1C2 (centres unmarked) [CA-Nor1] |  | kapp (value ± standard deviation) [1]: (6.68 ± 0.06) × 10^3 M^–1 s^–1
14 | Nc1nc(OCc2ccc(CNC(=O)OC[C@@H]3[C@@H]4CCC#CCC[C@@H]43)cc2)c2nc[nH]c2n1 [BG-BCN] | (3.88 ± 0.07) × 10^4 M^–1 s^–1 | 
15 | C=Cc1ccc(C(=O)NCCOCCOCCCCCCCl)cc1 [CA-Vbn] |  | kapp (value ± standard deviation) [1]: (8.68 ± 0.07) × 10^3 M^–1 s^–1
16 | Nc1nc(OCc2ccc(CNC(=O)OC3C#CCCCCC3)cc2)c2nc[nH]c2n1 (centres unmarked) [BG-SCO] | (3.75 ± 0.06) × 10^4 M^–1 s^–1 | 
17 | Nc1nc(OCc2ccccc2)c2nc[nH]c2n1 [BG, benzylguanine] | (1.87 ± 0.05) × 10^4 M^–1 s^–1 | 
18 | [N-]=[N+]=NCC(=O)NCCOCCOCCCCCCCl [CA-N3] |  | kapp (value ± standard deviation) [1]: (6.00 ± 0.06) × 10^3 M^–1 s^–1
19 | CN(C)c1ccc2c(-c3ccc(C(=O)NCCOCCOCCCCCCCl)cc3C(=O)[O-])c3ccc(=[N+](C)C)cc-3oc2c1 [CA-5-TMR] |  | Kd [3]: 39.4 µM
20 | CN(C)c1ccc2c(c1)C(C)(C)C1=CC(=[N+](C)C)C=CC1=C2c1cc(C(=O)NCc2ccc(COc3cc(Cl)nc(N)n3)cc2)ccc1C(=O)[O-] [CP-CPY] |  | kapp (value ± standard deviation) ([4]; third kinetic model with slow aging event (*)): (1.59 ± 0.01) × 10^4 ^* M^–1 s^–1
21 | [N-]=[N+]=Nc1ccc(C(=O)NCCOCCOCCCCCCCl)cc1 [CA-PhN3] |  | kapp (value ± standard deviation) [1]: (2.14 ± 0.02) × 10^4 M^–1 s^–1
22 | CN(C)c1ccc2c(c1)C(C)(C)C1=CC(=[N+](C)C)C=CC1=C2c1cc(C(=O)NCc2ccc(COc3nc(N)nc4[nH]cnc34)cc2)ccc1C(=O)[O-] [BG-CPY] |  | kapp (value ± standard deviation) ([4]; kinetic model 1): (2.17 ± 0.01) × 10^5 M^–1 s^–1
23 | Nc1nc(OCc2ccc(CNC(=O)C3CC4C=CC3C4)cc2)c2nc[nH]c2n1 (centres unmarked) [BG-Nor1] | (7.34 ± 0.01) × 10^4 M^–1 s^–1 | 
24 | O=C(NCCOCCOCCCCCCCl)OC[C@@H]1[C@@H]2CCC#CCC[C@@H]21 [CA-BCN] |  | kapp (value ± standard deviation) [1]: (2.04 ± 0.03) × 10^5 M^–1 s^–1
25 | Cc1nnc(-c2ccc(CC(=O)NCCOCCOCCCCCCCl)cc2)nn1 [CA-Tz] |  | kapp (value ± standard deviation) [1]: (3.13 ± 0.03) × 10^4 M^–1 s^–1
26 | C[Si]1(C)C2=CC(=[N+]3CCC3)C=CC2=C(c2c(F)c(C(=O)NCCOCCOCCCCCCCl)c(F)c(F)c2C(=O)[O-])c2ccc(N3CCC3)cc21 [CA-JF669] |  | k2 (± S.D.) [5]: 6.94 (± 0.47) s-1
27 | O=C(CC1CC2C=CC1C2)NCCOCCOCCCCCCCl (centres unmarked) [CA-Nor2] |  | kapp (value ± standard deviation) [1]: (6.15 ± 0.07) × 10^3 M^–1 s^–1
28 | CN(CCCC(=O)NCCOCCOCCOCCNC(=O)CCCC[C@H]1SC[C@H]2NC(=O)N[C@H]21)c1ccc2c(-c3cc(C(=O)NCCOCCOCCCCCCCl)ccc3C(=O)[O-])c3ccc(=[N+](C)C)cc-3oc2c1 [CA-TMR-biotin] |  | fold increase in labeling kinetics relative to CA-PEG-biotin ([5]; HT7): > 500 fold; k2 (± S.D.) [5]: 8.24 (± 0.28) s-1
